Measured values reported in patent US4895937A, “5-ioso-2-pyrimidinone nucleoside” (The Research Foundation of State University of New York, priority 1988, dated 1990).

What was measured:
[1] = biological target: thymidine kinase extracted from Varicella zoster virus infected cells (Human herpesvirus 3 strain Dumas, UniProt P09250); assay: Binding affinity with thymidine kinase from Varicella zoster virus infected cells (Example 6)
Experimental: (§1) The methylmercapto composition, as described in Example 5. was tested for binding affinity with thymidine kinase from various sources. Viruses which induce the production of thymidine kinase, induce thymidine kinase specific to the virus. […] It is believed that the compound of the invention, in order to become active in inhibiting the replication of the virus, must become phosphorylated. For such phosphorylation to occur, the thymidine kinase must first bind to the compound. Since binding with thymidine kinase produced by the virus is much more efficient and effective than binding with thymidine kinase from other sources, phosphorylation of the compound occurs more rapidly in the presence of active viruses producing thymidine kinase. The compound, activated by phosphorylation, then is able to interfere with replication of the virus.

HSV-1 = assay: Viral inhibition, HSV-1 (Example 7, method of Example 5); type: cell-based, herpes simplex type 1; conditions: Human alphaherpesvirus 1
Experimental: (§2) In accordance with the present invention, 1-(2-Deoxy-β-D-ribofuranosyl)-5-(methylmercapto)-2-pyrimidinone is prepared essentially in accordance with the procedure set forth in "Snythesis and Antiviral Activity of 1-(2-Deoxy-β-D-ribofuranosyl)-5-(methylmercapto)-2-pyrimidinone" by Schroeder and Bardos and Cheng, Volume 24, page 109, January 1981. HeLa cells were infected in 1640 RPMI medium with herpes simplex type 1 (HSV-1) and independently with herpes simplex type 2 (HSV-2) virus at a multiplicity of 5 to 10 plaque forming units per cell. The composition of 1640 RPMI medium is reported in "Biological Activity of 5 Ethyl, 5 Propyl, and 5 Vinyl 2'-Deoxyuridine" by Cheng et al published in Antimicrobial Agents and Chemotherapy, Volume 10, beginning at page 119 (1976). 1640 RPMI medium is commercially available from Gibco Company, Grand Island, N.Y. After 1 hour, virus absorption, the drugs were added. Resulting cultures were analyzed for virus titer at 24 hours post infection a described in the procedure set forth in "Biological Activity of 5-Ethyl, 5-Propyl and 5-Vinyl 2'-uridine" by Cheng et al. The results are set forth in Table 2. The numbers set forth in Table 2 show the number of plaque forming units in the control which contained no methylmercapto compound and the number of units at concentrations of 100, 200 and 400 micromoles of the methylmercapto compound. The results clearly indicate substantial decrease in the number of plaque forming units in the presence of 1-(2-Deoxy-β-D-ribofuranosyl)-5-(methylmercapto)-2-pyrimidinone.
(§3) The above described methyl compound was tested for viral inhibition substantially in accordance with the method of Example 5 except that the concentrations were 50 and 100 micromolar.

HSV-1(Kos) = assay: Virus titer in HSV-1 infected HeLa cells, 24 hours post infection (Example 5); type: cell-based, herpes simplex type 1; conditions: control 1.5 × 10^7
Experimental: as §2

[2] = system: thymidine kinase extracted from human cells; assay: Binding affinity with thymidine kinase extracted from human cells (Example 6)
Experimental: as §1

[3] = biological target: thymidine kinase extracted from cells infected with herpes simplex 1 virus (Human alphaherpesvirus 1 strain 17, UniProt P0DTH5); assay: Binding affinity with thymidine kinase extracted from cells infected with herpes simplex 1 virus (Example 6); conditions: herpes simplex 1 virus infected cells
Experimental: as §1

HSV-2 = assay: Viral inhibition, HSV-2 (Example 7, method of Example 5); type: cell-based, herpes simplex type 2; conditions: Human alphaherpesvirus 2
Experimental: as §2, §3

HSV-2 (333) = assay: Virus titer in HSV-2 infected HeLa cells, 24 hours post infection (Example 5); type: cell-based, herpes simplex type 2; conditions: control 1.2 × 10^7
Experimental: as §2

[4] = 50 micromolar, vs untreated control

Sequence of thymidine kinase extracted from Varicella zoster virus infected cells (P09250 whole entry, looked up): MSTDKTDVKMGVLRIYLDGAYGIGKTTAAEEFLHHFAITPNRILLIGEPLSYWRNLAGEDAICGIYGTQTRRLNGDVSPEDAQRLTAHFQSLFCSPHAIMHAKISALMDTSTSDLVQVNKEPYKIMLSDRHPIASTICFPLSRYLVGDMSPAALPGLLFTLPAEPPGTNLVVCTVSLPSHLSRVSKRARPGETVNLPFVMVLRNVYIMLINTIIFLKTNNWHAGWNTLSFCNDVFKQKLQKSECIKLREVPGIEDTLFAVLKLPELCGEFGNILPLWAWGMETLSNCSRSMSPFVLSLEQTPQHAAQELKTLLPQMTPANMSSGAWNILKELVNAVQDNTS
Sequence of thymidine kinase extracted from cells infected with herpes simplex 1 virus (P0DTH5 whole entry): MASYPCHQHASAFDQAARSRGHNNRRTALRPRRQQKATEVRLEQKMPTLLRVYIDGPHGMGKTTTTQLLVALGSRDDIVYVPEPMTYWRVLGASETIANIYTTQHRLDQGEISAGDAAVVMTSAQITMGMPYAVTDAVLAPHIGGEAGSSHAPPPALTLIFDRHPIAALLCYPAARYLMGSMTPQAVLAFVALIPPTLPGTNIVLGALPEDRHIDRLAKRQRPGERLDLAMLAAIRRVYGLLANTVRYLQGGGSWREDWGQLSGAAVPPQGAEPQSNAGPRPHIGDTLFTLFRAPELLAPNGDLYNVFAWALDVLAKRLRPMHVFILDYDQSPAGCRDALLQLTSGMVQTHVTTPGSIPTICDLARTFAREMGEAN

## CSc1cnc(=O)n([C@H]2C[C@H](O)[C@@H](CO)O2)c1 [methylmercapto compound, 1-(2-Deoxy-β-D-ribofuranosyl)-5-(methylmercapto)-2-pyrimidinone]
[1]
  binding affinity with thymidine kinase: great binding affinity
HSV-1; [4]
  inhibition at 50 µM: 41.1%
HSV-1; 100 micromolar
  inhibition at 100 µM: 83.8%
HSV-1(Kos); 100 μM
  plaque-forming units/mL, HSV-1(Kos): 6.4 × 10^7 plaque-forming units/mL
HSV-1(Kos); 200 μM
  plaque-forming units/mL, HSV-1(Kos): 1.7 × 10^6 plaque-forming units/mL
HSV-1(Kos); 400 μM
  plaque-forming units/mL, HSV-1(Kos): 3.4 × 10^5 plaque-forming units/mL
[2]
  binding affinity with thymidine kinase: little binding affinity
[3]
  binding affinity with thymidine kinase: great binding affinity
HSV-2; [4]
  inhibition at 50 µM: 57.2%
HSV-2; 100 micromolar
  inhibition at 100 µM: 79.3%
HSV-2 (333); 100 μM
  plaque-forming units/mL, HSV-2 (333): 1.3 × 10^7 plaque-forming units/mL
HSV-2 (333); 200 μM
  plaque-forming units/mL, HSV-2 (333): 3.1 × 10^6 plaque-forming units/mL
HSV-2 (333); 400 μM
  plaque-forming units/mL, HSV-2 (333): 3.2 × 10^5 plaque-forming units/mL
